Measured values published in article PMC5341858, “Molecular regulation of apoptotic machinery and lipid metabolism by mTORC1/mTORC2 dual inhibitors in preclinical models of HER2+/PIK3CAmut breast cancer” (Oncotarget, 2016).

Columns and labels:
Assay in all cases: KINOMEscan binding assay
[1] = biological target: T1, ABL1 (E255K)- phosphorylated (Homo sapiens, UniProt P00519, E255K); details: 1000 nM, percent control relative to vehicle
T1 construct: purchased DiscoveRx KINOMEscan
Source text: (§1) IC50 values were generated using Graphpad PRISM 5 software.

[2] = biological target: T2, ABL1 (T315I)- phosphorylated (Homo sapiens, UniProt P00519, T315I); details: 1000 nM, percent control relative to vehicle
T2 construct: purchased DiscoveRx KINOMEscan
Source text: as §1

ABL1-nonphosphorylated = biological target: T3, ABL1-nonphosphorylated (Homo sapiens, UniProt P00519); details: 1000 nM, percent control relative to vehicle
T3 construct: purchased DiscoveRx KINOMEscan
Source text: as §1

AKT1 = biological target: T4, AKT1 (Homo sapiens, UniProt P31749); details: 1000 nM, percent control relative to vehicle
T4 construct: purchased DiscoveRx KINOMEscan
Source text: as §1

AURKB = biological target: T5, AURKB (Homo sapiens, UniProt Q96GD4); details: 1000 nM, percent control relative to vehicle
T5 construct: purchased DiscoveRx KINOMEscan
Source text: as §1

BTK = biological target: T6, BTK (Homo sapiens, UniProt Q06187); details: 1000 nM, percent control relative to vehicle
T6 construct: purchased DiscoveRx KINOMEscan
Source text: as §1

CDK2 = biological target: T7, CDK2 (Homo sapiens, UniProt P24941); details: 1000 nM, percent control relative to vehicle
T7 construct: purchased DiscoveRx KINOMEscan
Source text: as §1

CDK3 = biological target: T8, CDK3 (Homo sapiens, UniProt Q00526); details: 1000 nM, percent control relative to vehicle
T8 construct: purchased DiscoveRx KINOMEscan
Source text: as §1

CDK9 = biological target: T9, CDK9 (Homo sapiens, UniProt P50750); details: 1000 nM, percent control relative to vehicle
T9 construct: purchased DiscoveRx KINOMEscan
Source text: as §1

CSNK1G2 = biological target: T10, CSNK1G2 (Homo sapiens, UniProt P78368); details: 1000 nM, percent control relative to vehicle
T10 construct: purchased DiscoveRx KINOMEscan
Source text: as §1

EPHA2 = biological target: T11, EPHA2 (Homo sapiens, UniProt P29317); details: 1000 nM, percent control relative to vehicle
T11 construct: purchased DiscoveRx KINOMEscan
Source text: as §1

ERBB2 = biological target: T12, ERBB2 (Homo sapiens, UniProt P04626); details: 1000 nM, percent control relative to vehicle
T12 construct: purchased DiscoveRx KINOMEscan
Source text: as §1

ERBB4 = biological target: T13, ERBB4 (Homo sapiens, UniProt Q15303); details: 1000 nM, percent control relative to vehicle
T13 construct: purchased DiscoveRx KINOMEscan
Source text: as §1

ERK1 = biological target: T14, ERK1 (Homo sapiens, UniProt P27361); details: 1000 nM, percent control relative to vehicle
T14 construct: purchased DiscoveRx KINOMEscan
Source text: as §1

FGFR3 = biological target: T15, FGFR3 (Homo sapiens, UniProt P22607); details: 1000 nM, percent control relative to vehicle
T15 construct: purchased DiscoveRx KINOMEscan
Source text: as §1

FLT3 = biological target: T16, FLT3 (Homo sapiens, UniProt P36888); details: 1000 nM, percent control relative to vehicle
T16 construct: purchased DiscoveRx KINOMEscan
Source text: as §1

IGF1R = biological target: T17, IGF1R (Homo sapiens, UniProt P08069); details: 1000 nM, percent control relative to vehicle
T17 construct: purchased DiscoveRx KINOMEscan
Source text: as §1

IKK-beta = biological target: T18, IKK-beta (Homo sapiens, UniProt O14920); details: 1000 nM, percent control relative to vehicle
T18 construct: purchased DiscoveRx KINOMEscan
Source text: as §1

INSR = biological target: T19, INSR (Homo sapiens, UniProt P06213); details: 1000 nM, percent control relative to vehicle
T19 construct: purchased DiscoveRx KINOMEscan
Source text: as §1

[3] = biological target: T20, JAK2 (JH1domain-catalytic) (Homo sapiens, UniProt O60674); details: 1000 nM, percent control relative to vehicle
T20 construct: JAK2 (JH1domain-catalytic); purchased DiscoveRx KINOMEscan
Source text: as §1

[4] = biological target: T21, JAK3 (JH1domain-catalytic) (Homo sapiens, UniProt P52333); details: 1000 nM, percent control relative to vehicle
T21 construct: JAK3 (JH1domain-catalytic); purchased DiscoveRx KINOMEscan
Source text: as §1

JNK1 = biological target: T22, JNK1 (Homo sapiens, UniProt P45983); details: 1000 nM, percent control relative to vehicle
T22 construct: purchased DiscoveRx KINOMEscan
Source text: as §1

JNK2 = biological target: T23, JNK2 (Homo sapiens, UniProt P45984); details: 1000 nM, percent control relative to vehicle
T23 construct: purchased DiscoveRx KINOMEscan
Source text: as §1

MAP3K4 = biological target: T24, MAP3K4 (Homo sapiens, UniProt Q9Y6R4); details: 1000 nM, percent control relative to vehicle
T24 construct: purchased DiscoveRx KINOMEscan
Source text: as §1

MAPKAPK2 = biological target: T25, MAPKAPK2 (Homo sapiens, UniProt P49137); details: 1000 nM, percent control relative to vehicle
T25 construct: purchased DiscoveRx KINOMEscan
Source text: as §1

MARK3 = biological target: T26, MARK3 (Homo sapiens, UniProt P27448); details: 1000 nM, percent control relative to vehicle
T26 construct: purchased DiscoveRx KINOMEscan
Source text: as §1

MEK1 = biological target: T27, MEK1 (Homo sapiens, UniProt Q02750); details: 1000 nM, percent control relative to vehicle
T27 construct: purchased DiscoveRx KINOMEscan
Source text: as §1

PAK1 = biological target: T28, PAK1 (Homo sapiens, UniProt Q13153); details: 1000 nM, percent control relative to vehicle
T28 construct: purchased DiscoveRx KINOMEscan
Source text: as §1

PAK2 = biological target: T29, PAK2 (Homo sapiens, UniProt Q13177); details: 1000 nM, percent control relative to vehicle
T29 construct: purchased DiscoveRx KINOMEscan
Source text: as §1

PDGFRB = biological target: T30, PDGFRB (Homo sapiens, UniProt P09619); details: 1000 nM, percent control relative to vehicle
T30 construct: purchased DiscoveRx KINOMEscan
Source text: as §1

PDPK1 = biological target: T31, PDPK1 (Homo sapiens, UniProt O15530); details: 1000 nM, percent control relative to vehicle
T31 construct: purchased DiscoveRx KINOMEscan
Source text: as §1

PIK3CB = PIK3CB (Homo sapiens, UniProt P42338)
Source text: as §1

PIM2 = biological target: T32, PIM2 (Homo sapiens, UniProt Q9P1W9); details: 1000 nM, percent control relative to vehicle
T32 construct: purchased DiscoveRx KINOMEscan
Source text: as §1

PIM3 = biological target: T33, PIM3 (Homo sapiens, UniProt Q86V86); details: 1000 nM, percent control relative to vehicle
T33 construct: purchased DiscoveRx KINOMEscan
Source text: as §1

PLK1 = biological target: T34, PLK1 (Homo sapiens, UniProt P53350); details: 1000 nM, percent control relative to vehicle
T34 construct: purchased DiscoveRx KINOMEscan
Source text: as §1

PLK3 = biological target: T35, PLK3 (Homo sapiens, UniProt Q9H4B4); details: 1000 nM, percent control relative to vehicle
T35 construct: purchased DiscoveRx KINOMEscan
Source text: as §1

PLK4 = biological target: T36, PLK4 (Homo sapiens, UniProt O00444); details: 1000 nM, percent control relative to vehicle
T36 construct: purchased DiscoveRx KINOMEscan
Source text: as §1

RAF1 = biological target: T37, RAF1 (Homo sapiens, UniProt P04049); details: 1000 nM, percent control relative to vehicle
T37 construct: purchased DiscoveRx KINOMEscan
Source text: as §1

RET = biological target: T38, RET (Homo sapiens, UniProt P07949); details: 1000 nM, percent control relative to vehicle
T38 construct: purchased DiscoveRx KINOMEscan
Source text: as §1

ROCK2 = biological target: T39, ROCK2 (Homo sapiens, UniProt O75116); details: 1000 nM, percent control relative to vehicle
T39 construct: purchased DiscoveRx KINOMEscan
Source text: as §1

TGFBR1 = biological target: T40, TGFBR1 (Homo sapiens, UniProt P36897); details: 1000 nM, percent control relative to vehicle
T40 construct: purchased DiscoveRx KINOMEscan
Source text: as §1

TSSK1B = biological target: T41, TSSK1B (Homo sapiens, UniProt Q9BXA7); details: 1000 nM, percent control relative to vehicle
T41 construct: purchased DiscoveRx KINOMEscan
Source text: as §1

ULK2 = biological target: T42, ULK2 (Homo sapiens, UniProt Q8IYT8); details: 1000 nM, percent control relative to vehicle
T42 construct: purchased DiscoveRx KINOMEscan
Source text: as §1

ZAP70 = biological target: T43, ZAP70 (Homo sapiens, UniProt P43403); details: 1000 nM, percent control relative to vehicle
T43 construct: purchased DiscoveRx KINOMEscan
Source text: as §1

p38-alpha = biological target: T44, p38-alpha (Homo sapiens, UniProt Q16539); details: 1000 nM, percent control relative to vehicle
T44 construct: purchased DiscoveRx KINOMEscan
Source text: as §1

T30 sequence (P09619 33-1106): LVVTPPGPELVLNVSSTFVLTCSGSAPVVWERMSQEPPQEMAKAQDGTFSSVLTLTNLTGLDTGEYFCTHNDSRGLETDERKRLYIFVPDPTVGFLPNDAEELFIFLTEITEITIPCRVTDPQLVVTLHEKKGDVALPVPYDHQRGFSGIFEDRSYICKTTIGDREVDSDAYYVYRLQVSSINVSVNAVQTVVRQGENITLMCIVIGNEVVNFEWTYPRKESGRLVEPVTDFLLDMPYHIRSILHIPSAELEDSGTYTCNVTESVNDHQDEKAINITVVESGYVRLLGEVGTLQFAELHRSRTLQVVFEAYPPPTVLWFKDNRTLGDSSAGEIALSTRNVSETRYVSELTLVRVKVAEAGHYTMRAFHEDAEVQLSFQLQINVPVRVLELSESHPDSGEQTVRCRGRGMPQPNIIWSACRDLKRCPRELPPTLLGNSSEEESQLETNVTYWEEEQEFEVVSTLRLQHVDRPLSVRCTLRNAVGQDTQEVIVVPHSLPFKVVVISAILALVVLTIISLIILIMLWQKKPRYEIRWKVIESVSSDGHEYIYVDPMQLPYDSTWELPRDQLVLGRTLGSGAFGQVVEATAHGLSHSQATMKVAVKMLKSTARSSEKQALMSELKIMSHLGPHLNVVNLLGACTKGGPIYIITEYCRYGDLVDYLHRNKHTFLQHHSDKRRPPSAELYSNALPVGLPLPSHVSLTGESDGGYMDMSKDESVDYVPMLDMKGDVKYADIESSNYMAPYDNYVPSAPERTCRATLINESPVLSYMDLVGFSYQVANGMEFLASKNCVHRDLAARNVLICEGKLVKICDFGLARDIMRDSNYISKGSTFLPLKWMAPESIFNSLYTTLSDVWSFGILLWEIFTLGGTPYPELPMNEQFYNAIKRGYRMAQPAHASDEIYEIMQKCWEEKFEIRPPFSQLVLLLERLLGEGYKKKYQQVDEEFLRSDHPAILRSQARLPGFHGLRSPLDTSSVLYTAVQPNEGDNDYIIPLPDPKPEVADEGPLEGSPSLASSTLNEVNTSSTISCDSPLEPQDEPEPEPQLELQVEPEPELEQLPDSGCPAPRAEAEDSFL
T29 sequence (Q13177 whole entry): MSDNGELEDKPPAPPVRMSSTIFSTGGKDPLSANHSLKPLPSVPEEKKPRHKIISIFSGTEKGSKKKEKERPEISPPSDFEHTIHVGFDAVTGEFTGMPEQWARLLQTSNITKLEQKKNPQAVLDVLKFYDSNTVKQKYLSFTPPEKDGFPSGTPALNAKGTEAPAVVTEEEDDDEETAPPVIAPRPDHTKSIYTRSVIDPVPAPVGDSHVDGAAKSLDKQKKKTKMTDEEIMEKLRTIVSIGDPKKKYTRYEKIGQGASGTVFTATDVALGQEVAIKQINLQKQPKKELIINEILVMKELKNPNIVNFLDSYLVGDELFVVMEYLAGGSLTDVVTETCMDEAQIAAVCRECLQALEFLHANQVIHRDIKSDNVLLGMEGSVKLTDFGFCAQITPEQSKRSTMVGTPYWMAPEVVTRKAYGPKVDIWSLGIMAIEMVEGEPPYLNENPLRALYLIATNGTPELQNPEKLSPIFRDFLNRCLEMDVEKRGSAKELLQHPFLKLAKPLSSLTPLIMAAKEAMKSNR
T9 sequence (P50750 whole entry): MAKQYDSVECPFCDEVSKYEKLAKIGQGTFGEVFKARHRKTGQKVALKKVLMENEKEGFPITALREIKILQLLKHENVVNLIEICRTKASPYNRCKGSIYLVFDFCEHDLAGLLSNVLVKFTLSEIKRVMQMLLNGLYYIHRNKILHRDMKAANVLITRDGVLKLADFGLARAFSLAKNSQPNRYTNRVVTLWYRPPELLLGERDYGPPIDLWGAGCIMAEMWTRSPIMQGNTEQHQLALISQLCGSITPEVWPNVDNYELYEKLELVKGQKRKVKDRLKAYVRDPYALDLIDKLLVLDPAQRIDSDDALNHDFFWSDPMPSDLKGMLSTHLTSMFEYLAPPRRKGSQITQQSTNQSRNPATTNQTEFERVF
T27 sequence (Q02750 whole entry): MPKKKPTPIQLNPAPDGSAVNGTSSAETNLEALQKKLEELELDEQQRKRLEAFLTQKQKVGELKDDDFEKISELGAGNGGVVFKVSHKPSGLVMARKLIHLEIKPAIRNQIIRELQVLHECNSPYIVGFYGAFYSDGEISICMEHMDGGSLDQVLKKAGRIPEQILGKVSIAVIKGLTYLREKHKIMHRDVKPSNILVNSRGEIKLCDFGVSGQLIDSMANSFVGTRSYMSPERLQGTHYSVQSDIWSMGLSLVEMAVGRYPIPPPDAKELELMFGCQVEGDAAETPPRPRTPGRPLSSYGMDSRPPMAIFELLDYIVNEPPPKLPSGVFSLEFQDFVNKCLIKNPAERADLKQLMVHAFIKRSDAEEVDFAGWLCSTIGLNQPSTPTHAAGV
T22 sequence (P45983 whole entry): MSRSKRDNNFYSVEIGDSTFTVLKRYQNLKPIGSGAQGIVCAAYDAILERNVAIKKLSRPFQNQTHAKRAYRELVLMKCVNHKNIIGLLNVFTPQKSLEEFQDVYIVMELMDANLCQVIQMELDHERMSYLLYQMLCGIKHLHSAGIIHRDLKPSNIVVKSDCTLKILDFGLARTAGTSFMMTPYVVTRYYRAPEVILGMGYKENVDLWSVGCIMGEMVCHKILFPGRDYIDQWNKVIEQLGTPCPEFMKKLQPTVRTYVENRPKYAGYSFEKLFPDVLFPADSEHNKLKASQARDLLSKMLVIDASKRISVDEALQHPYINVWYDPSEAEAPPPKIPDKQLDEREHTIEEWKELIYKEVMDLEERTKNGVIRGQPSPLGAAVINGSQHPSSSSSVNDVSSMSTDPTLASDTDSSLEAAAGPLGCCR
T32 sequence (Q9P1W9 whole entry): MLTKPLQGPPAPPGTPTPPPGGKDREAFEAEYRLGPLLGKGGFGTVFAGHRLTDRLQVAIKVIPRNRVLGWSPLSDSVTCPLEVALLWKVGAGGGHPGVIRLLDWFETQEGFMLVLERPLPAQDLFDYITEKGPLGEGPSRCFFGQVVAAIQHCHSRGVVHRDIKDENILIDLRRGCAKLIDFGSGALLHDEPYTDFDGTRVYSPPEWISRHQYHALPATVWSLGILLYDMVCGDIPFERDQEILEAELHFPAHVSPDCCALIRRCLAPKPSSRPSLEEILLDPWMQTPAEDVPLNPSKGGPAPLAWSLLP
T10 sequence (P78368 whole entry): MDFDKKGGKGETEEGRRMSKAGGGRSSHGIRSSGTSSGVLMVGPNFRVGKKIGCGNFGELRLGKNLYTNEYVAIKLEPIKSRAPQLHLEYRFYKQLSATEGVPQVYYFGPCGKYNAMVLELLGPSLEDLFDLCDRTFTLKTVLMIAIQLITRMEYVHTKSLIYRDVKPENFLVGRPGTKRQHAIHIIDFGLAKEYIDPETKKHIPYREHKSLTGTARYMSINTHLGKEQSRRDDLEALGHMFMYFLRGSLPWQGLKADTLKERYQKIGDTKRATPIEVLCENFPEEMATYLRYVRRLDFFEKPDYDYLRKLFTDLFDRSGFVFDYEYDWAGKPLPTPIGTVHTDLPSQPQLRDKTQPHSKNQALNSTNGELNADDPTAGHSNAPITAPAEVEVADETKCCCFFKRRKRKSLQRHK
T44 sequence (Q16539 whole entry): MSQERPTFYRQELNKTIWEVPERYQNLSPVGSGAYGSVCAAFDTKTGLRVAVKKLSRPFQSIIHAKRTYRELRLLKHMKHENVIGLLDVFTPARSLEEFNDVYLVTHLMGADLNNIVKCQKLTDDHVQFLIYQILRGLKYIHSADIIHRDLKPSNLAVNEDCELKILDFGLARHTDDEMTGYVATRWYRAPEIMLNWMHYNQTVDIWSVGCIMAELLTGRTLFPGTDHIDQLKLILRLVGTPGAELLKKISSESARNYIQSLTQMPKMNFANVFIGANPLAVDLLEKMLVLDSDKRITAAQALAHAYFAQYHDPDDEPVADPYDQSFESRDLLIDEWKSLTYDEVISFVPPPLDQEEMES
T11 sequence (P29317 24-976): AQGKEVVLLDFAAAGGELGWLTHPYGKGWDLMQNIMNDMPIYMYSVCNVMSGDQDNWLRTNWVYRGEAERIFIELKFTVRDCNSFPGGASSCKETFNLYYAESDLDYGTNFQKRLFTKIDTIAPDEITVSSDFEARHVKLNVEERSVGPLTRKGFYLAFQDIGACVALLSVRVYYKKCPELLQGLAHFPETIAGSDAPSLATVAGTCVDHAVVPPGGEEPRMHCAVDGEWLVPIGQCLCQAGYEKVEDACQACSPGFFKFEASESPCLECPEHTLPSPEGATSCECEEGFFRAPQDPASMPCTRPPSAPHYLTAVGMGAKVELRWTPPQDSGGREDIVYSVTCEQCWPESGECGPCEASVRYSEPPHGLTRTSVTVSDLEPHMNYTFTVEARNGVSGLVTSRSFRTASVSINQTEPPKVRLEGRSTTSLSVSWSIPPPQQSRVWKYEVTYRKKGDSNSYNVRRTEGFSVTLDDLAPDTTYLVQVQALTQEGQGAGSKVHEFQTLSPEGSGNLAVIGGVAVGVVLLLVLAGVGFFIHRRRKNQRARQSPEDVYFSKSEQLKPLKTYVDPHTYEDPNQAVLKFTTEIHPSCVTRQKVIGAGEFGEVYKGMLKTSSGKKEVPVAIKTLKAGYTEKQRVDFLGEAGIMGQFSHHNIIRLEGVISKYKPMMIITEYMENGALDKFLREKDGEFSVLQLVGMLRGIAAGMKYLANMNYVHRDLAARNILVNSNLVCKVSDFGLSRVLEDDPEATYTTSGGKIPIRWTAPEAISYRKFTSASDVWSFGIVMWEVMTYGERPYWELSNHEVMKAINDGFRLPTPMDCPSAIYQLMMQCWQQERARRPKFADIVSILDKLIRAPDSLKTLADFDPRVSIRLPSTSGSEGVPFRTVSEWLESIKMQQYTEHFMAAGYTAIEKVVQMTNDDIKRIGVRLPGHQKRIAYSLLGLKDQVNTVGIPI

CNC(=O)c1cccc(-c2ccc3c(N4C5CCC4COC5)nc(N4CCOC[C@@H]4C)nc3n2)c1 [MTI-31]
% Control [1]: 78% | % Control [2]: 76% | % Control (ABL1-nonphosphorylated): 52% | % Control (AKT1): 100% | % Control (AURKB): 80% | % Control (BTK): 68% | % Control (CDK2): 84% | % Control (CDK3): 99% | % Control (CDK9): 90% | % Control (CSNK1G2): 100% | % Control (EPHA2): 98% | % Control (ERBB2): 97% | % Control (ERBB4): 100% | % Control (ERK1): 100% | % Control (FGFR3): 92% | % Control (FLT3): 100% | % Control (IGF1R): 100% | % Control (IKK-beta): 69% | % Control (INSR): 100% | % Control [3]: 88% | % Control [4]: 82% | % Control (JNK1): 81% | % Control (JNK2): 96% | % Control (MAP3K4): 100% | % Control (MAPKAPK2): 87% | % Control (MARK3): 71% | % Control (MEK1): 73% | % Control (PAK1): 100% | % Control (PAK2): 94% | % Control (PDGFRB): 100% | % Control (PDPK1): 97% | Kd (PIK3CB): > 1000 nM | % Control (PIM2): 92% | % Control (PIM3): 100% | % Control (PLK1): 78% | % Control (PLK3): 92% | % Control (PLK4): 87% | % Control (RAF1): 82% | % Control (RET): 100% | % Control (ROCK2): 73% | % Control (TGFBR1): 93% | % Control (TSSK1B): 100% | % Control (ULK2): 80% | % Control (ZAP70): 72% | % Control (p38-alpha): 100%
